Data: patent publication US6867211B2, “4-Pyridyl-and 2,4-pyrimidinyl-substituted pyrrole derivatives and their use in pharmacy” (Merckle GmbH, priority 2000, dated 2005)
Like-named read-outs stand apart in the source and are kept apart here.

Tests used:
[1] = tested on: IL-1β; assay: In vitro test procedure using human whole blood, LPS-stimulated, IL-1β by ELISA; assay type: cell-based; conditions: Homo sapiens; whole-blood method
Procedure: (§1) In vitro Test Procedure Using Human Whole Blood
(§2) Human potassium-EDTA whole blood (at 400 μl) is preincubated with test substance for 15 min. at 37° C. in a CO2 incubator (5% CO2; 95% moisture-saturated air). The samples are then stimulated for 4 hours with 1 μg/ml of LPS (E. coli 026:B6) at 37° C. in a CO2 incubator (5% CO2; 95% moisture-saturated air). The reaction is ended by placing the samples on ice, addition of DPBS buffer and subsequent centrifugation (1000×g; 15 min). The plasma supernatant is used for the quantification of IL-1β and TNFα by means of ELISA.

[2] = biological target: T1, 5-lipoxygenase (Homo sapiens, UniProt P09917); assay: In vitro test system for determining the inhibition of 5-lipoxygenase (LTB4 from human granulocytes, A 23187, ELISA); assay type: cell-based; conditions: human granulocytes; read-out: 5-LO IC50
T1 construct: Human granulocytes are used as a source of the 5-lipoxygenase; endogenous in cells; host or cells: human granulocytes isolated from heparinised blood on a Percoll gradient
T1 sequence (P09917 1-674): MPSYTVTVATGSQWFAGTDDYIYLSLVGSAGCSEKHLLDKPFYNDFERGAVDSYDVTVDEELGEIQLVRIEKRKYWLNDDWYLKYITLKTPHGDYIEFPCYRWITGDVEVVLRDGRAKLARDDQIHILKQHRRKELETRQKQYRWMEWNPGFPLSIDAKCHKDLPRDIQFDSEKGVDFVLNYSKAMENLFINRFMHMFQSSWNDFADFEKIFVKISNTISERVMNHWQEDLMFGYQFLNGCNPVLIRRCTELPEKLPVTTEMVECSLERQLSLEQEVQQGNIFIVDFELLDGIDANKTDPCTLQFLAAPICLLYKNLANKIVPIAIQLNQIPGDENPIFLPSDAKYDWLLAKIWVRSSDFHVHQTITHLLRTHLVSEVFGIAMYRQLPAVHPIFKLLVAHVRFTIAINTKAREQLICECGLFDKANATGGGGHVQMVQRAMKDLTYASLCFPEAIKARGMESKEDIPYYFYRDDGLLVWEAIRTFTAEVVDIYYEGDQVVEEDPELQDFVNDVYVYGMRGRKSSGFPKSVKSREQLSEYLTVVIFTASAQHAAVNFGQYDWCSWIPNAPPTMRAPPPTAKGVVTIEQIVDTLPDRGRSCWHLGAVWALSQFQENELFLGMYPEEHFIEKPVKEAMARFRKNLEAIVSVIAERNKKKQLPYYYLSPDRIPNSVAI
Procedure: In vitro Test System for Determining the Inhibition of 5-lipoxygenase
Human granulocytes are used as a source of the 5-lipoxygenase. LTB4 (leukotriene B4) is formed from endogenous arachidonic acid by means of stimulation with calcium ionophore A 23187. The granulocytes are isolated and the enzyme reaction is carried out according to known processes (see Arch. Pharm. Pharm. Med. Chem. 330, 307-312 (1997)).
The blood, which is protected from clotting with heparin, is centrifuged on a discontinuous Percoll® gradient and the granulocyte layer is pipetted off. After lysis of the erythrocytes, the granulocytes are washed a number of times and then adjusted to a specific cell count. The enzyme reaction is then started with calcium ionophore A 23187 in the presence or absence of the test substance after addition of Ca2+. The synthesis of the leukotrienes is stopped after 1.5 minutes. The samples are centrifuged off and the supernatant is diluted. LTB4 is determined quantitatively by means of ELISA.

[3] = tested on: TNFα; assay: In vitro test procedure using human whole blood, LPS-stimulated, TNFα by ELISA; assay type: cell-based; conditions: Homo sapiens; whole-blood method
Procedure: as §1, §2

[4] = tested on: TNFα; assay: In vitro test procedure using PBMCs, LPS-stimulated, TNFα by ELISA; assay type: cell-based; conditions: Homo sapiens, PBMC; for inhibition at 1 µM: at 1 μmol; for inhibition at 10 µM: at 10 μmol
Procedure: (§3) In vitro Test Procedure Using PBMCs
(§4) The mononuclear cells (PBMCs) are isolated from human potassium-EDTA whole blood diluted 1:3 by means of density gradient centrifugation (Histopaque®-1.077). After 2 washing steps with DPBS buffer, the mononuclear cells are resuspended in macrophage-SFM medium and adjusted to a cell count of 1×10^6 cells/ml.
(§5) The PBMCs suspension (at 390 μl) is preincubated with test substance for 15 min at 37° C. in a CO2 incubator (5% CO2; 95% moisture-saturated air). The samples are subsequently stimulated for 4 hours with 1 μg/ml LPS (E.coli 026:B6) at 37° C. in a CO2 incubator (5% CO2, 95% moisture-saturated air). The reaction is ended by placing the samples on ice, addition of DPBS buffer and centrifugation (15880×g; 12 min). The supernatant is used for the quantification of IL-1β and TNFα by means of ELISA.

[5] = tested on: IL-1β; assay: In vitro test procedure using PBMCs, LPS-stimulated, IL-1β by ELISA; assay type: cell-based; conditions: Homo sapiens, PBMC; for inhibition at 1 µM / inhibition at 10 µM: 4 h, read-out: IL-1β percentage inhibition; for inhibition at 1 µM: at 1 μmol; for inhibition at 10 µM: at 10 μmol
Procedure: as §3, §4, §5

[6] = biological target: T2, COX2 (from sheep placenta) (Ovis aries, UniProt P79208); assay: In vitro test system for determining the inhibition of cyclooxygenase-2 (COX2 from sheep placenta, PGE2 ELISA); assay type: biochemical; conditions: read-out: COX-2 IC50
T2 construct: COX2 (from sheep placenta) is preincubated at 4° C. with test substance for 10 min; from tissue; host or cells: sheep placenta
T2 sequence (P79208 17-603): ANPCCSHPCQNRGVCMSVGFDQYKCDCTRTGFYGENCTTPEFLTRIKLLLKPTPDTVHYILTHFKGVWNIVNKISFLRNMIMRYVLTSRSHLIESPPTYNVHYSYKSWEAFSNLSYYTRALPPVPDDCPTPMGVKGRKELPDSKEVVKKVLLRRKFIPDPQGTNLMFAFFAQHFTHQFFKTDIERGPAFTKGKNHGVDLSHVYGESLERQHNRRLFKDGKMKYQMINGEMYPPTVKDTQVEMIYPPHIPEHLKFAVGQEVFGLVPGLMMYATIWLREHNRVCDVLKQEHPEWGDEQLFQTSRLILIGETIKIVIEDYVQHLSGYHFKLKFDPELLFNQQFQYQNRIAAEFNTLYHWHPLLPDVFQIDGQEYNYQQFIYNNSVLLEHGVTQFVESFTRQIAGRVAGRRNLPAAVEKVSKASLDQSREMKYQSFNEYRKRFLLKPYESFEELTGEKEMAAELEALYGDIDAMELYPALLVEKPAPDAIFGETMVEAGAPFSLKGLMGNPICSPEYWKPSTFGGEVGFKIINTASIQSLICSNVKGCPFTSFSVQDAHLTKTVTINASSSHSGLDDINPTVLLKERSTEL
Procedure: In vitro Test System for Determining the Inhibition of Cyclooxygenase-2
COX2 (from sheep placenta) is preincubated at 4° C. with test substance for 10 min, then stimulated with arachidonic acid (5 μM) at 25° C. for 10 min. […] The determination is carried out at 3 dilutions (10^−7, 10^−6, 10^−5 M). The PGE2 concentrations are quantified by means of ELISA (see Mitchell J. A. et al., Proc. Nat. Acad. Sci. 90: 11693-11697 (1993)).

[7] = biological target: T3, cyclooxygenase-1 (Homo sapiens, UniProt P23219); assay: In vitro test system for determining the inhibition of cyclooxygenase-1 (PGE2 from human platelets, calcium ionophore, ELISA); assay type: cell-based; conditions: for IC50: human platelets, read-out: COX-1 IC50
T3 construct: endogenous in cells; host or cells: human platelets isolated on a discontinuous Percoll gradient
Procedure: In vitro Test System for Determining the Inhibition of Cyclooxygenase-1
In this test system, the amount of prostaglandin E2 formed from human platelets after addition of calcium ionophore is determined by means of ELISA. In this process, the platelets are obtained after centrifugation on a discontinuous Percoll® gradient. The enzyme reaction and the determination of the metabolites formed is carried out in principle as in the determination of 5-lipoxygenase inhibition. Differences exist with respect to the incubation time. Furthermore, the addition of a thromboxane synthesis inhibitor is necessary (see Arch. Pharm. Pharm. Med. Chem. 330, 307-312 (1997)).

[8] = biological target: T2, COX2 (from sheep placenta); assay: In vitro test system for determining the inhibition of cyclooxygenase-2 (COX2 from sheep placenta, PGE2 ELISA); assay type: biochemical; conditions: for IC50: value in COX-2 column
[9] = 4 h, read-out: TNFα percentage inhibition
[10] = at 10 μmol, cells marked 'PBMC:' / 'whole-blood method:'

T3 sequence (P23219 24-599): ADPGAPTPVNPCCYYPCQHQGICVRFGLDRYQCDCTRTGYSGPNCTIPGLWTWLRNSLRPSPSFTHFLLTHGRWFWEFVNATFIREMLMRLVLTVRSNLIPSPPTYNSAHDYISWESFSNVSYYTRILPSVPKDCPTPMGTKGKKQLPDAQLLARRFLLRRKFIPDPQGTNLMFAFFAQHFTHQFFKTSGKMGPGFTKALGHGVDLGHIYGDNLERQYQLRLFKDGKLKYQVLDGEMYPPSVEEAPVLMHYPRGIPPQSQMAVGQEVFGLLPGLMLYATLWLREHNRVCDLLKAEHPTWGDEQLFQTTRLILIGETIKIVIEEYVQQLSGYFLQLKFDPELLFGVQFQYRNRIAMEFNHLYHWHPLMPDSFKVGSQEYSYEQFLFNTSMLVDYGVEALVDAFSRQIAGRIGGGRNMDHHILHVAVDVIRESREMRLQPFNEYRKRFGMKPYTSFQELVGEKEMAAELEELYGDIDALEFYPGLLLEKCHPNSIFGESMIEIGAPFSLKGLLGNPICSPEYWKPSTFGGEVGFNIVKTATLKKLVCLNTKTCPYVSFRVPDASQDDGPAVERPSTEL

| SMILES | IC50 [1] | IC50 [2] | IC50 [3] | IC50 [4] | IC50 [5] | IC50 [6] | IC50 [7] | inhibition at 1 µM [4, 9] | inhibition at 10 µM [4, 9] | COX-1 percentage inhibition ([7]; at 10 μmol) | inhibition at 0.1 µM ([4]; 4 h, at 0.1 μmol, read-out: TNFα percentage inhibition) | inhibition at 1 µM [5] | inhibition at 10 µM [5] | COX-2 percentage inhibition [8, 10] | IC50 ([8]; cell marked 'PBMC:') | IC50 ([8]; cell marked 'whole-blood method:') | COX-1 percentage inhibition ([7]; at 1.0 μmol) | COX-2 percentage inhibition ([8]; at 1 μmol, cell marked 'PBMC:') |
| --- | --- | --- | --- | --- | --- | --- | --- | --- | --- | --- | --- | --- | --- | --- | --- | --- | --- | --- |
| OCc1c(-c2ccncc2)c(-c2ccc(F)cc2)n2c1CCC2 [Example 3, [3-(4-Fluorophenyl)-2-(4-pyridyl)-6,7-dihydro-5H-pyrrolizin-1-yl]methanol] | 22 µM | 3.7 µM | 28 µM | 4 µM | 5 µM | 5.7 µM | – | – | – | – | – | – | – | – | – | – | – | – |
| Cc1c(-c2ccncc2)c(-c2ccc(F)cc2)n2c1CCC2 [Example 4, 5-(4-Fluorophenyl)-7-methyl-6-(4-pyridyl)-2,3-dihydro-1H-pyrrolizine] | 59 µM | 2.4 µM | 41 µM | 6 µM | 5.7 µM | 3.4 µM | 1.9 µM | – | – | – | – | – | – | – | – | – | – | – |
| Fc1ccc(-c2c(-c3ccncc3)cc3n2CCC3)cc1 [Example 5, 5-(4-Fluorophenyl)-6-(4-pyridyl)-2,3-dihydro-1H-pyrrolizine] | – | 0.027 µM | – | 1.4 µM | – | 5.8 µM | – | 44% | 88% | – | – | – | – | – | – | – | – | – |
| CCOC(=O)c1c(-c2ccncc2)c(-c2ccc(F)cc2)n2c1SCC2 [Example 10A, Ethyl 5-(4-fluorophenyl)-6-(4-pyridyl)-2,3-dihydropyrrolo-[2,1-b]-thiazole-7-carboxylate] | 30 µM | 0.065 µM | 30 µM | 10 µM | > 100 µM | 6.1 µM | 3.4 µM | – | – | – | – | – | – | – | – | – | – | – |
| Fc1ccc(-c2c(-c3ccncc3)cc3n2CCCC3)cc1 [Example 18, 3-(4-Fluorophenyl)-2-(4-pyridyl)-5,6,7,8-tetrahydroindolizine] | 36 µM | 3.3 µM | 37 µM | – | 7.5 µM | 1.6 µM | – | 33% | 65% | 10/35% | 16% | – | – | – | – | – | – | – |
| CCOC(=O)c1c(-c2ccc(F)cc2)c(-c2ccncc2)n2c1CCC2 [Example 19A, Ethyl 2-(4-fluorophenyl)-3-(4-pyridyl)-6,7-dihydro-5H-pyrrolizine-1-carboxylate] | – | 2.05 µM | – | – | – | 5.5 µM | 2.9 µM | 0% | 60% | – | – | 0% | 21% | – | – | – | – | – |
| Cc1c(-c2ccc(F)cc2)c(-c2ccncc2)n2c1CCC2 [Example 21, 6-(4-Fluorophenyl)-7-methyl-5-(4-pyridyl)-2,3-dihydro-1H-pyrrolizine] | 37 µM | – | – | 26 µM | 5.6 µM | – | 0.13 µM | – | – | – | – | – | – | 33% | 0.34 µM | 6 µM | – | – |
| Fc1ccc(-c2cc3n(c2-c2ccncc2)CCC3)cc1 [Example 22, 6-(4-Fluorophenyl)-5-(4-pyridyl)-2,3-dihydro-1H-pyrrolizine] | – | 0.67 µM | – | – | – | 1.5 µM | 0.23 µM | – | 34% | – | – | – | 59% | – | – | – | – | – |
| CC1(C)CSc2c(-c3ccncc3)c(-c3ccc(F)cc3)cn2C1 [Example 23, 7-(4-Fluorophenyl)-3,3-dimethyl-8-pyridin-4-yl-3,4-dihydro-2H-pyrrolo[2,1-b][1,3]thiazine] | – | 0.05 µM | – | – | – | – | 3.5 µM | 0% | 79% | 83% | – | 19% | – | 50% | 4 µM | – | 0% | 10% |
| CC1(C)COc2c(-c3ccncc3)c(-c3ccc(F)cc3)cn2C1 [Example 24, 7-(4-Fluorophenyl)-3,3-dimethyl-8-pyridin-4-yl-3,4-dihydro-2H-pyrrolo[2,1-b][1,3]-oxazine] | – | 1.35 µM | – | – | – | 4 µM | – | – | 42% | – | – | – | 48% | – | – | – | – | – |
